Laboratory results reported in the NIST ThermoML archive (doi:10.1016/j.jct.2016.07.003).

Columns and labels:
[1] = mn = molality of the nth substance listed, in mol/kg; conditions: 87 kPa, Liquid, Vibrating tube method
[2] = osmotic coefficient (dimensionless); mn = molality of the nth substance listed, in mol/kg; conditions: 298.15 K, 87 kPa, Liquid, isopiestic method
[3] = wn = mass fraction of the nth substance listed; conditions: 87 kPa, Liquid, Vibrating tube method

CCn1cc[n+](C)c1.O=S(=O)([O-])O [1-ethyl-3-methylimidazolium hydrogen sulfate] + O
mass density [kg/m3], [1]
Conditions | m1 = 0.0363 | m1 = 0.0687 | m1 = 0.1026 | m1 = 0.1384 | m1 = 0.1716 | m1 = 0.2049 | m1 = 0.2391 | m1 = 0.2718 | m1 = 0.3034 | m1 = 0.3375
293.15 K | 1000.86 | 1003.08 | 1005.3 | 1007.57 | 1009.63 | 1011.67 | 1013.72 | 1015.68 | 1017.53 | 1019.54
298.15 K | 999.65 | 1001.82 | 1003.99 | 1006.22 | 1008.23 | 1010.23 | 1012.24 | 1014.17 | 1016 | 1017.98
303.15 K | 998.2 | 1000.33 | 1002.46 | 1004.64 | 1006.63 | 1008.6 | 1010.58 | 1012.47 | 1014.26 | 1016.21
308.15 K | 996.54 | 998.63 | 1000.73 | 1002.87 | 1004.82 | 1006.76 | 1008.7 | 1010.58 | 1012.34 | 1014.25
313.15 K | 994.68 | 996.73 | 998.8 | 1000.91 | 1002.83 | 1004.74 | 1006.66 | 1008.5 | 1010.24 | 1012.13

[2]
Conditions | osmotic coefficient
m1 = 1.038 | 0.895
m1 = 1.543 | 0.897
m1 = 1.745 | 0.898
m1 = 1.961 | 0.9
m1 = 2.045 | 0.904
m1 = 2.251 | 0.909
m1 = 2.534 | 0.915
m1 = 2.814 | 0.919
m1 = 3.343 | 0.93
m1 = 4.042 | 0.948
m1 = 4.513 | 0.96
m1 = 5.04 | 0.974
m1 = 5.663 | 0.993
m1 = 6.555 | 1.03
m1 = 6.91 | 1.05

[Cl-].[Li+] [lithium chloride] + O
mass density [kg/m3], [3]
Conditions | 293.15 K | 298.15 K | 303.15 K | 308.15 K | 313.15 K
w1 = 0.0346 | – | 1016.17 | 1014.72 | 1013.08 | 1011.25
w1 = 0.0691 | 1036.35 | 1035.04 | 1033.55 | 1031.8 | 1030.06
w1 = 0.1035 | 1055.18 | 1053.81 | 1052.33 | 1050.73 | 1049.03
w1 = 0.1379 | 1074.05 | 1072.65 | 1071.16 | 1069.55 | 1067.85

[2]
Conditions | osmotic coefficient
m1 = 0.9064 | 1.02
m1 = 1.278 | 1.08
m1 = 1.439 | 1.09
m1 = 1.616 | 1.09
m1 = 1.667 | 1.11
m1 = 1.83 | 1.12
m1 = 1.99 | 1.16
m1 = 2.183 | 1.18
m1 = 2.563 | 1.21
m1 = 3.014 | 1.27
m1 = 3.293 | 1.32
m1 = 3.572 | 1.37
m1 = 3.952 | 1.42
m1 = 4.457 | 1.51
m1 = 4.668 | 1.55
